# Several values for one entry are separate records, joined by “and”; a condition that tells them apart may be missing. Identical values can stand only once.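 1) Cells in 96-well plates. 2) Compound, 48 h, 5 concentrations. 3) Linear interpolation between surrounding doses. 4) Unreached endpoint = highest concentration. Abbreviation: GI50, concentration required for 50% inhibition of growth. TGI marks complete inhibition of growth.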
# Tested on: MOLT-4 leukemia
# Test: NCI tumour cell line growth inhibition, 48 h
SMILES,GI50,TGI
Cc1cc2ncnn2cc1Nc1ncc2c(n1)n(C1CCOCC1)c(=O)n2C,6.09 µM,52 µM
COc1ccc(C(=O)c2cc(C)c(OC)c(C)c2)c(OC)c1O,0.0448 µM,> 100 µM
CN(Cc1ccccc1)C(=O)c1ccccc1C(=O)O,,> 100 µM
COc1cc(Cc2nccc3cc(OC)c(OC)cc23)c(C(C)=O)cc1OC,> 750 µM,> 750 µM
COC(=O)Nc1nc2ccc(C3(c4ccc(F)cc4)OCCO3)cc2[nH]1,0.573 µM,> 100 µM

# Tested on: NCI-H522 lung
# Test: NCI tumour cell line growth inhibition, 48 h
SMILES,GI50,TGI
CC1(C)C(=O)/C(=C\c2cccnc2)C[C@]2(C)[C@H]3CC[C@@H]4[C@H]5[C@H](C(=O)/C=C/c6cccnc6)CC[C@]5(C(=O)O)CC[C@@]4(C)[C@]3(C)CC[C@@H]12,2.35 µM,5.99 µM
Cn1cc(C2(C)CC(C)(C)c3c2n(C)c2ccccc32)c2ccccc21 (stereo not given),,> 100 µM
COc1ccc(C(=O)c2cc(OC)c(OC)c(OC)c2)cc1/C=C/C(=O)c1ccc(F)cc1,2.02 µM,5.34 µM
COC(=O)C(Cc1nc2ccccc2[nH]c1=O)C(NO)C(=O)Nc1c(Cl)cc([N+](=O)[O-])cc1Cl (stereo not given),,31.3 µM
COC(=O)C(CC(=O)Nc1ccc(C)cc1)C(=O)C(=O)Nc1c(C(C)C)cccc1C(C)C (stereo not given),,> 100 µM
OCC1OC(n2cnc3c2NC=NC[C@H]3O)C(Cl)C1O (stereo not given in full),,> 100 µM
COc1ccc(C2=C(Cl)c3cc(OC)c(OC)cc3C2Cl)cc1 (stereo not given),,> 27.5 µM
O=C(/C=C/c1ccc(Cl)c(Cl)c1)c1ccc2ccccc2c1,,> 100 µM
COc1ccc(-c2[nH]c3ccc(OC)cc3c2/C=C(\C#N)S(=O)(=O)c2ccccc2)cc1,1.58 µM,> 20.7 µM
O=c1cc(NCC(O)CN2CCCC2)n(Cc2ccccc2)c(=O)n1Cc1ccccc1 (stereo not given),79.3 µM,> 100 µM
C/C(=N\Nc1ccc(Cl)cn1)c1ccc2ccccc2n1,3.24 µM,> 100 µM
CC1=C(/C=C/Cl)CC(Cl)C(C)(Cl)C1 (stereo not given),,> 100 µM
COc1c2c(cc3c1OCO3)[C@]13C=C[C@H](OC)C[C@H]1N(C2)CC3O (stereo not given in full),,> 100 µM
Cc1[nH]c(=O)nc2[nH][nH]c(=O)c12,,> 100 µM
C=C1C(=O)O[C@H]2[C@H]1CC/C(COC(=O)NCCCCNC(=O)OC/C1=C/CC[C@@]3(C)O[C@H]3[C@H]3OC(=O)C(=C)[C@@H]3CC1)=C\CC[C@@]1(C)O[C@@H]21,0.167 µM,0.375 µM
COc1ccc(-c2nc3ccccn3c2/C=C/C(=O)c2cc(OC)c(OC)c(OC)c2)cc1OC,2.74 µM,35.5 µM
O=C(N/N=C/c1cc(Br)ccc1O)N/N=C/c1cc(Br)ccc1O,,> 100 µM
CCCN(CCC)C(=O)c1c([N+](=O)[O-])cc(C(F)(F)F)cc1[N+](=O)[O-],,60.5 µM
COc1cc2c3c(n(CCCN)c(=O)c2cc1OC)-c1ccc(C#N)cc1C3=O,9.61 µM,> 100 µM
O=C1c2ccccc2C(=O)C1(O)c1c[nH]c2ccccc12,,> 100 µM
O=C(Nc1cc(Cl)c(Cl)cc1Cl)C(=O)C1C(=O)NC(=S)NC1=O,,> 100 µM
Nc1ccccc1/C(O)=C1/CCOC1=O,,> 100 µM
O=S(=O)(c1ccc(NC(=S)NC23CC4CC(CC(C4)C2)C3)cc1)N1CCCCC1,2.7 µM,6.62 µM
[N-]=[N+]=C1C(=O)NN=C1c1ccccc1,,> 100 µM
CC12OC(C(=O)C13CC3)C1C(=O)c3ccc4c(ccc5ccccc54)c3C(=O)C12 (stereo not given),51.3 µM,> 100 µM
Cc1cc2ncnn2cc1Nc1ncc2c(n1)n(C1CCOCC1)c(=O)n2C,3.74 µM,> 100 µM
COc1ccc(C(=O)c2cc(C)c(OC)c(C)c2)c(OC)c1O,< 0.0189 µM,
CN(Cc1ccccc1)C(=O)c1ccccc1C(=O)O,,> 100 µM
COc1cc(Cc2nccc3cc(OC)c(OC)cc23)c(C(C)=O)cc1OC,21.5 µM,300 µM
COC(=O)Nc1nc2ccc(C3(c4ccc(F)cc4)OCCO3)cc2[nH]1,0.222 µM,2.65 µM

# Tested on: OVCAR-3 ovarian
# Test: NCI tumour cell line growth inhibition, 48 h
SMILES,GI50,TGI
CC1(C)C(=O)/C(=C\c2cccnc2)C[C@]2(C)[C@H]3CC[C@@H]4[C@H]5[C@H](C(=O)/C=C/c6cccnc6)CC[C@]5(C(=O)O)CC[C@@]4(C)[C@]3(C)CC[C@@H]12,1.76 µM,3.42 µM
COc1cc2ncnc(-n3ncc4cc(NC(=O)Nc5ccccc5)ccc43)c2cc1OC,2.08 µM,13.1 µM
Cn1cc(C2(C)CC(C)(C)c3c2n(C)c2ccccc32)c2ccccc21 (stereo not given),,> 100 µM
COc1ccc(C(=O)c2cc(OC)c(OC)c(OC)c2)cc1/C=C/C(=O)c1ccc(F)cc1,4.83 µM,15.5 µM
COC(=O)C(Cc1nc2ccccc2[nH]c1=O)C(NO)C(=O)Nc1c(Cl)cc([N+](=O)[O-])cc1Cl (stereo not given),,> 100 µM
OCC1OC(n2cnc3c2NC=NC[C@H]3O)C(Cl)C1O (stereo not given in full),,> 100 µM
COc1ccc(C2=C(Cl)c3cc(OC)c(OC)cc3C2Cl)cc1 (stereo not given),,30.9 µM
O=C(/C=C/c1ccc(Cl)c(Cl)c1)c1ccc2ccccc2c1,,> 100 µM
COc1ccc(-c2[nH]c3ccc(OC)cc3c2/C=C(\C#N)S(=O)(=O)c2ccccc2)cc1,0.356 µM,1.62 µM
O=c1cc(NCC(O)CN2CCCC2)n(Cc2ccccc2)c(=O)n1Cc1ccccc1 (stereo not given),> 100 µM,> 100 µM
C/C(=N\Nc1ccc(Cl)cn1)c1ccc2ccccc2n1,0.545 µM,> 100 µM
COc1c2c(cc3c1OCO3)[C@]13C=C[C@H](OC)C[C@H]1N(C2)CC3O (stereo not given in full),,> 100 µM
Cc1[nH]c(=O)nc2[nH][nH]c(=O)c12,,> 100 µM
C=C1C(=O)O[C@H]2[C@H]1CC/C(COC(=O)NCCCCNC(=O)OC/C1=C/CC[C@@]3(C)O[C@H]3[C@H]3OC(=O)C(=C)[C@@H]3CC1)=C\CC[C@@]1(C)O[C@@H]21,0.693 µM,2.01 µM
COc1ccc(-c2nc3ccccn3c2/C=C/C(=O)c2cc(OC)c(OC)c(OC)c2)cc1OC,2.47 µM,8.56 µM
CCCN(CCC)C(=O)c1c([N+](=O)[O-])cc(C(F)(F)F)cc1[N+](=O)[O-],,34.8 µM
COc1cc2c3c(n(CCCN)c(=O)c2cc1OC)-c1ccc(C#N)cc1C3=O,19.1 µM,39.9 µM
COc1cc2[nH]c3c(c2cc1OC)CCN[C@]31CC[C@]2(CC3c4c(cc(OC)c(O)c42)CCN3C)C[C@H]1OC (stereo not given in full),,46.2 µM
O=C1c2ccccc2C(=O)C1(O)c1c[nH]c2ccccc12,,> 100 µM
c1ccc(C2N3CCCCC3[C@@H]3c4[nH]c5ccccc5c4CCN23)nc1 (stereo not given in full),,> 100 µM
Nc1ccccc1/C(O)=C1/CCOC1=O,,> 100 µM
O=S(=O)(c1ccc(NC(=S)NC23CC4CC(CC(C4)C2)C3)cc1)N1CCCCC1,3.51 µM,21.1 µM
[N-]=[N+]=C1C(=O)NN=C1c1ccccc1,,> 100 µM
CCOC(=O)N[C@@H]1C(CC(=O)OC)O[C@H]2OC(C)(C)O[C@H]21 (stereo not given in full),,> 100 µM
Cc1cc(NC(=S)SCc2ccc(F)cc2)c([N+](=O)[O-])cc1C,,54.6 µM
Cc1cc2ncnn2cc1Nc1ncc2c(n1)n(C1CCOCC1)c(=O)n2C,6.22 µM,72 µM
COc1ccc(C(=O)c2cc(C)c(OC)c(C)c2)c(OC)c1O,0.0374 µM,
CN(Cc1ccccc1)C(=O)c1ccccc1C(=O)O,,> 100 µM
COc1cc(Cc2nccc3cc(OC)c(OC)cc23)c(C(C)=O)cc1OC,86 µM and 27.7 µM,300 µM and 203 µM
COC(=O)Nc1nc2ccc(C3(c4ccc(F)cc4)OCCO3)cc2[nH]1,0.301 µM,

# Tested on: SF-539 CNS
# Test: NCI tumour cell line growth inhibition, 48 h
SMILES,GI50,TGI
CC1(C)C(=O)/C(=C\c2cccnc2)C[C@]2(C)[C@H]3CC[C@@H]4[C@H]5[C@H](C(=O)/C=C/c6cccnc6)CC[C@]5(C(=O)O)CC[C@@]4(C)[C@]3(C)CC[C@@H]12,1.9 µM,3.92 µM
COc1cc2ncnc(-n3ncc4cc(NC(=O)Nc5ccccc5)ccc43)c2cc1OC,0.23 µM,17.3 µM
Cn1cc(C2(C)CC(C)(C)c3c2n(C)c2ccccc32)c2ccccc21 (stereo not given),,> 100 µM
COc1ccc(C(=O)c2cc(OC)c(OC)c(OC)c2)cc1/C=C/C(=O)c1ccc(F)cc1,1.98 µM,4.3 µM
COC(=O)C(Cc1nc2ccccc2[nH]c1=O)C(NO)C(=O)Nc1c(Cl)cc([N+](=O)[O-])cc1Cl (stereo not given),,56.5 µM
COC(=O)C(CC(=O)Nc1ccc(C)cc1)C(=O)C(=O)Nc1c(C(C)C)cccc1C(C)C (stereo not given),,> 100 µM
OCC1OC(n2cnc3c2NC=NC[C@H]3O)C(Cl)C1O (stereo not given in full),,> 100 µM
COc1ccc(C2=C(Cl)c3cc(OC)c(OC)cc3C2Cl)cc1 (stereo not given),,30.8 µM
O=C(/C=C/c1ccc(Cl)c(Cl)c1)c1ccc2ccccc2c1,,> 100 µM
COc1ccc(-c2[nH]c3ccc(OC)cc3c2/C=C(\C#N)S(=O)(=O)c2ccccc2)cc1,0.495 µM,2.51 µM
O=c1cc(NCC(O)CN2CCCC2)n(Cc2ccccc2)c(=O)n1Cc1ccccc1 (stereo not given),> 100 µM,> 100 µM
